{"source": "patent US20060063766A1", "about": "“Use of aryl- and heteroaryl-substituted tetrahydroisoquinolines to block reuptake of norepinephrine, dopamine, and serotonin” (priority 2004, published 2006)", "key": {"DAT": {"molecular_target": "T1, DAT (Homo sapiens, UniProt Q01959)", "T1 construct": "cDNAs containing the complete coding regions of each transporter were amplified by PCR from human brain libraries; expressed in transfected cells; host or cells: HEK293E", "T1 sequence (Q01959 whole entry)": "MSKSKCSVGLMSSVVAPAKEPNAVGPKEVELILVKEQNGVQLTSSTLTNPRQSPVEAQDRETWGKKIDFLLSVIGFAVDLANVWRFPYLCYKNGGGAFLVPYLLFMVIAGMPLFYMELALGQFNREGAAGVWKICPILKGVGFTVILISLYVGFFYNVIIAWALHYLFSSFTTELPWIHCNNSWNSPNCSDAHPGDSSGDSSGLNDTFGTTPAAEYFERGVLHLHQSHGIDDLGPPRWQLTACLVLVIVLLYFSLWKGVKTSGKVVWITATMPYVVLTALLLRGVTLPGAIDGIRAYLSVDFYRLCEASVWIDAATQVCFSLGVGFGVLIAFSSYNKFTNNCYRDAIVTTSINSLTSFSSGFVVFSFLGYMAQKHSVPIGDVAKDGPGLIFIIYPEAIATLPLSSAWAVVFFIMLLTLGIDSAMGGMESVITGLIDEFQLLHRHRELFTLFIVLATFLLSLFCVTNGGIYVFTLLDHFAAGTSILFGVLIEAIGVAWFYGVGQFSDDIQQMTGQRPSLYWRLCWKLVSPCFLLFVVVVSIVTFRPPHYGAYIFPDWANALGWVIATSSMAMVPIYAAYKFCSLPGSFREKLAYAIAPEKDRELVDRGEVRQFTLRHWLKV", "assay": "biochemical", "type": "binding"}, "SERT": {"molecular_target": "SERT (Homo sapiens, UniProt P31645)", "sequence (P31645 whole entry)": "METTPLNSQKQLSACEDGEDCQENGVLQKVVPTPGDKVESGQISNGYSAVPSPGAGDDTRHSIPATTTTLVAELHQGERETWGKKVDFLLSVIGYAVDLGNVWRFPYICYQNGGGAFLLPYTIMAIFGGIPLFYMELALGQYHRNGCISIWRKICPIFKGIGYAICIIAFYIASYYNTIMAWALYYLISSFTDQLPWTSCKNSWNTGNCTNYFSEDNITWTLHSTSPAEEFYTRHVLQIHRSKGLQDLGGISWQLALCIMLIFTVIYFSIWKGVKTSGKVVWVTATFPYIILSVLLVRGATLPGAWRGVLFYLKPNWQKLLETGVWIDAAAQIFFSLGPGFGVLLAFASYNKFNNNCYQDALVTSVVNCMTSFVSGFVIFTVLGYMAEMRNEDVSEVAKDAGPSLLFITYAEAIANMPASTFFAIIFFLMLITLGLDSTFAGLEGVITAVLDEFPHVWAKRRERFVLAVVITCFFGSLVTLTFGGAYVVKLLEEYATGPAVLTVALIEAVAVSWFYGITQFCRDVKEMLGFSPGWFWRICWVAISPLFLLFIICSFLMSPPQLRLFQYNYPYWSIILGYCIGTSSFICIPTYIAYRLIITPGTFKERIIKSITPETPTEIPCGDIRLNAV", "assay": "biochemical"}, "dopamine transporter": {"molecular_target": "dopamine transporter (Homo sapiens, UniProt Q01959)", "sequence (Q01959 whole entry)": "as the sequence (Q01959 whole entry) above", "conditions": "cited from earlier work"}, "[1]": {"system": "tetrabenazine-induced exploratory loss and ptosis in mice", "assay": "Tetrabenazine assay", "conditions": "mouse; result in words"}, "[2]": {"conditions": "in a very small number of patients; cited from earlier work"}}, "note": "pKi: −log10 of the molar value.", "data": [{"smiles": "CN1Cc2ccccc2C(c2ccc3sncc3c2)C1.O=C(O)/C=C\\C(=O)O", "note": "(single isomer, unassigned; (+)) [Example 135, (+)-4-benzo[d]isothiazol-5-yl-2-methyl-1,2,3,4-tetrahydroisoquinoline, maleate salt]", "values": [{"measurement": "pKi", "setting": "DAT", "result": 7.10}, {"measurement": "melting point", "result": "145 to 147", "unit": "°C"}, {"measurement": "pKi", "setting": "SERT", "result": 7.98}]}, {"smiles": "CNCC[C@@H](Oc1ccccc1C)c1ccccc1", "note": "[atomoxetine]", "values": [{"measurement": "activity at the dopamine transporter", "setting": "dopamine transporter", "result": "little or no activity"}]}, {"smiles": "COC(=O)C(c1ccccc1)C1CCCCN1", "note": "(stereo not shown) [Ritalin]", "values": [{"measurement": "biological activity in the tetrabenazine in vivo assay", "setting": "[1]", "result": "potent activity"}]}, {"smiles": "CN1Cc2c(N)cccc2C(c2ccccc2)C1", "note": "(stereo not shown) [Nomifensine]", "values": [{"measurement": "biological activity in the tetrabenazine in vivo assay", "setting": "[1]", "result": "potent biological activity"}]}, {"smiles": "CN1Cc2c(N)cccc2C(c2ccccc2)C1", "note": "(stereo not shown) [Nomifensine®]", "values": [{"measurement": "serious side effect of long term administration", "setting": "[2]", "result": "fatal immune hemolytic anemia"}]}]}
